Assay type in all cases: biochemical
One test has as its target T1, collagenase (MMP-1) (Homo sapiens, UniProt P03956).
T1 sequence (P03956 100-469): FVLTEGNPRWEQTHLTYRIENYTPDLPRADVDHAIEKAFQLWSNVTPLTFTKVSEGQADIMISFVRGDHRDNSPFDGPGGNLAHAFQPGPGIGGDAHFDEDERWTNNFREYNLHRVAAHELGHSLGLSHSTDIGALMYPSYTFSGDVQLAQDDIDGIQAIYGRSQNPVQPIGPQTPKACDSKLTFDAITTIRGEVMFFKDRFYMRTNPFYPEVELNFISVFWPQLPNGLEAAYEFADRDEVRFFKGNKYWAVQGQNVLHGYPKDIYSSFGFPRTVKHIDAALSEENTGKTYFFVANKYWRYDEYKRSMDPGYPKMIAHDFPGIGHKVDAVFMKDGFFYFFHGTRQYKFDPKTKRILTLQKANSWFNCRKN
Nature of the test: MMP-1 enzyme inhibition assay (coumarin-labelled peptide substrate). To be noted: read-out: percentage inhibition MMP1. The method, boiled down: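 Recombinant human MMP-1, APMA-activated if needed, in Tris-HCl pH 7.6 with NaCl, CaCl2 and 0.05% Brij 35; McaPLGLDpaAR substrate added as 8 μM solution, 2 h at 37 °C. Fluorescence (320/405 nm) read without stopping; IC50 from 10 duplicate concentrations (100 μM–5.1 nM) by four-parameter fit.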

A further test deals with T2, gelatinase A (MMP-2) (Homo sapiens, UniProt P08253).
T2 sequence (P08253 110-660): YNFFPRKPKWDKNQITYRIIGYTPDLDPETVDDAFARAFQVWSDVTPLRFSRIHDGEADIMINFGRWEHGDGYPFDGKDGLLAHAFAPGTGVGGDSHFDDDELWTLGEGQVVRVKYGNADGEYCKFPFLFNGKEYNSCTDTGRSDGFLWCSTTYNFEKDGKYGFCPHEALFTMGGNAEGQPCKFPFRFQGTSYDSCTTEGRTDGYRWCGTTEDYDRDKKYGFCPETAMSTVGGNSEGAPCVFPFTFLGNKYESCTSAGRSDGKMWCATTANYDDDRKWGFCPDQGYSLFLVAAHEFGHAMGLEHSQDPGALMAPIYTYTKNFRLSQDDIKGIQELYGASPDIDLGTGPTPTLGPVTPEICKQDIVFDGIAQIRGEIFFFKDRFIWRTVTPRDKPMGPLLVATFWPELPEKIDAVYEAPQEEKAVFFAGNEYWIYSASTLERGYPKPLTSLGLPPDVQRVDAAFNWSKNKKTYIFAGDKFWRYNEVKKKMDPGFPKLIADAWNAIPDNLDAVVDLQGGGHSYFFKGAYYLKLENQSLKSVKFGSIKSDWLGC
Nature of the test: MMP-2 enzyme inhibition assay (coumarin-labelled peptide substrate). The settings on record: read-out: IC50 MMP2. The method, boiled down: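 Recombinant human MMP-2, APMA-activated if necessary, run as for the MMP-9 protocol: McaPLGLDpaAR substrate (8 μM working dilution) in 100 mM Tris-HCl pH 7.6, 100 mM NaCl, 10 mM CaCl2, 0.05% Brij 35; ten 3-fold concentrations (100 μM–5.1 nM) in duplicate, 2 h at 37° C. Fluorescence ex 320/em 405 nm, unstopped; IC50 from four-parameter fit.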

Another test deals with metalloelastase (MMP-12) (Homo sapiens, UniProt P39900). Nature of the test: MMP-12 enzyme inhibition assay (coumarin-labelled peptide substrate). To be noted: read-out: IC50 MMP12. The method, boiled down:
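Recombinant human MMP-12 assayed per the MMP-9 protocol: Tris-HCl pH 7.6 buffer with NaCl, CaCl2, Brij 35; McaPLGLDpaAR substrate, compounds 100 μM–5.1 nM in duplicate, 2 h at 37° C. Fluorescence read at 405 nm (320 nm excitation) without stopping; IC50 from four-parameter fit.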

Where only a bound is given, the exact number is not on record here.

Chain of metalloelastase (MMP-12) (P39900 106-470): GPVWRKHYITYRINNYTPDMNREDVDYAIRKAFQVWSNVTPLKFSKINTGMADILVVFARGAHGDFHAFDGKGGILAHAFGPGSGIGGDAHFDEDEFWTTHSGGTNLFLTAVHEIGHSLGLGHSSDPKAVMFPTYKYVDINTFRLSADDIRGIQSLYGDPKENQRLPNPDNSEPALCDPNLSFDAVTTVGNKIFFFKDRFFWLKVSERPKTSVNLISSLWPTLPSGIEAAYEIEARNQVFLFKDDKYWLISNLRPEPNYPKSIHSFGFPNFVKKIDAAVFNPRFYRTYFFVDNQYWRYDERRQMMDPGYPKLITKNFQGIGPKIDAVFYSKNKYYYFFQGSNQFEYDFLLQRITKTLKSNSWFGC

Broadly, the inhibition is the relative decrease from the control value, in per cent. In general, IC50 refers to the concentration that gives 50% inhibition. For the molecule `O=CN(O)[C@@H](CS(=O)(=O)N1CCc2ccc(Cl)cc2C1)[C@H]1CCCO1` [Example 22, N-{(1R)-2-[(7-chloro-3,4-dihydroisoquinolin-2(1H)-yl)sulfonyl]-1-[(2R)-tetrahydrofuran-2-yl]ethyl}-N-hydroxyformamide], at collagenase (MMP-1), the inhibition at 5 µM worked out at 0%. Moreover, the IC50 at gelatinase A (MMP-2) was determined as 470 nM; on metalloelastase (MMP-12), 210 nM.

Regarding `O=CN(O)[C@H](CS(=O)(=O)N1CCc2ccc(Cl)cc2C1)[C@H]1CCCO1` [Example 23, N-{(1S)-2-[(7-chloro-3,4-dihydroisoquinolin-2(1H)-yl)sulfonyl]-1-[(2R)-tetrahydrofuran-2-yl]ethyl}-N-hydroxyformamide], the inhibition at 5 µM on collagenase (MMP-1) worked out at 52%. The values for the half-inhibitory concentration (IC50) at gelatinase A (MMP-2) and on metalloelastase (MMP-12) were 27 nM and 28 nM, respectively.

As to `COc1cc2c(cc1OC)CN(S(=O)(=O)CC([C@H](O)CO)N(O)C=O)CC2` (stereo partly drawn) [Example 24, N-((2S)-1-{[(6,7-dimethoxy-3,4-dihydroisoquinolin-2(1H)-yl)sulfonyl]methyl}-2,3-dihydroxypropyl)-N-hydroxyformamide], the inhibition at 5 µM on collagenase (MMP-1) was 0%. In addition, the concentration for half-maximal inhibition (IC50) at gelatinase A (MMP-2) was greater than 5000 nM; on metalloelastase (MMP-12), 300 nM.

For the molecule `O=CN(O)C(CS(=O)(=O)N1CCc2cc(C(F)(F)F)ccc2C1)C1CCCC1` (centres unmarked) [Example 25, N-(1-cyclopentyl-2-{[6-(trifluoromethyl)-3,4-dihydro-isoquinolin-2(1H)-yl]sulfonyl}ethyl)-N-hydroxyformamide], at collagenase (MMP-1), the inhibition at 5 µM was 37%. For the same molecule, the values for the IC50 on gelatinase A (MMP-2) and at metalloelastase (MMP-12) were 78 nM and 6 nM, respectively.

Take `CC(C)(C)CC(CS(=O)(=O)N1Cc2ccc(F)cc2C1)N(O)C=O` (centres unmarked) [Example 26, N-(1-{[(5-fluoro-1,3-dihydro-2H-isoindol-2-yl)sulfonyl]methyl}-3,3-dimethylbutyl)-N-hydroxyformamide]: at collagenase (MMP-1), the inhibition at 0.1 µM was 17% and the inhibition at 5 µM was determined as 92%. Also, the half-inhibitory concentration (IC50) at gelatinase A (MMP-2) was 60 nM. Moreover, the IC50 on metalloelastase (MMP-12) is 10 nM.

On to `O=CN(O)[C@H](CS(=O)(=O)N1CCc2ccc(C(F)(F)F)cc2C1)[C@H]1CCCO1` [Example 27, N-hydroxy-N-((1S)-1-[(2R)-tetrahydrofuran-2-yl]-2-{[7-(trifluoromethyl)-3,4-dihydroisoquinolin-2(1H)-yl]sulfonyl}ethyl)formamide], for which the inhibition at 5 µM on collagenase (MMP-1) was determined as 30%. In addition, the IC50 at gelatinase A (MMP-2) was 58 nM; at metalloelastase (MMP-12), 6.9 nM.

Consider `CC1(C)OC[C@H](C(CS(=O)(=O)N2CCc3ccc(C(F)(F)F)cc3C2)N(O)C=O)O1` (stereo partly drawn) [Example 28, N-(1-[(4S)-2,2-dimethyl-1,3-dioxolan-4-yl]-2-{[7-(trifluoro-methyl)-3,4-dihydroisoquinolin-2(1H)-yl]sulfonyl}ethyl)-N-hydroxyformamide], for which the inhibition at 5 µM at collagenase (MMP-1) was 18%. The figures for the IC50 on gelatinase A (MMP-2) and at metalloelastase (MMP-12) were 45 nM and 3.9 nM, respectively.

Regarding `O=CN(O)[C@H](CS(=O)(=O)N1Cc2ccc(F)cc2C1)[C@H]1CCCO1` [Example 29, N-{(1S)-2-[(5-fluoro-1,3-dihydro-2H-isoindol-2-yl)-sulfonyl]-1-[(2R)-tetrahydrofuran-2-yl]ethyl}-N-hydroxyformamide], on collagenase (MMP-1), the inhibition at 0.1 µM amounted to 22%. The inhibition at 5 µM on collagenase (MMP-1) is 94%. In addition, the IC50 stood at 150 nM on gelatinase A (MMP-2) and 14 nM on metalloelastase (MMP-12).

Take `CCC#CCC(C)(C)C(CS(=O)(=O)N1CCc2cc(C(F)(F)F)ccc2C1)N(O)C=O` (centres unmarked) [Example 30, N-[2,2-dimethyl-1-({[6-(trifluoromethyl)-3,4-dihydro-isoquinolin-2(1H)-yl]sulfonyl}methyl)hept-4-yn-1-yl]-N-hydroxyformamide]: the inhibition at 5 µM on collagenase (MMP-1) came out at 8%. Further, the half-inhibitory concentration (IC50) was 880 nM on gelatinase A (MMP-2) and 32 nM on metalloelastase (MMP-12).

As to `CC(C)(Cc1ccccc1)C(CS(=O)(=O)N1CCc2cc(C(F)(F)F)ccc2C1)N(O)C=O` (centres unmarked) [Example 31, N-[2,2-dimethyl-3-phenyl-1-({[6-(trifluoromethyl)-3,4-dihydroisoquinolin-2(1H)-yl]sulfonyl}methyl)propyl]-N-hydroxyformamide], the inhibition at 5 µM on collagenase (MMP-1) came to 10%. Further, the results for the IC50 at gelatinase A (MMP-2) and at metalloelastase (MMP-12) were 939 nM and 40 nM, respectively.

With `O=CN(O)[C@@H](CS(=O)(=O)N1CCc2ccc(C(F)(F)F)cc2C1)[C@H]1CCCO1` [Example 32, N-hydroxy-N-((1R)-1-[(2R)-tetrahydrofuran-2-yl]-2-{[7-(trifluoromethyl)-3,4-dihydroisoquinolin-2(1H)-yl]sulfonyl}ethyl)formamide], the inhibition at 5 µM on collagenase (MMP-1) came out at 4%. The IC50 on gelatinase A (MMP-2) is greater than 5000 nM; at metalloelastase (MMP-12), 168 nM.

Take `COc1ccc2c(c1)CN(S(=O)(=O)CC(CCC1CCCO1)N(O)C=O)CC2` (centres unmarked) [Example 33, N-hydroxy-N-[1-{[(7-methoxy-3,4-dihydroisoquinolin-2(1H)-yl)sulfonyl]methyl}-3-(tetrahydrofuran-2-yl)propyl]formamide]: the inhibition at 5 µM at collagenase (MMP-1) was 4%. In addition, the half-maximal inhibitory concentration (IC50) on gelatinase A (MMP-2) was 151 nM; on metalloelastase (MMP-12) it was 27 nM.

Turning to `CCC(CC)C(CS(=O)(=O)N1CCc2cc(Cl)c(Cl)cc2C1)N(O)C=O` (centres unmarked) [Example 34, N-(1-{[(6,7-dichloro-3,4-dihydroisoquinolin-2(1H)-yl)-sulfonyl]methyl}-2-ethylbutyl)-N-hydroxyformamide], the inhibition at 5 µM on collagenase (MMP-1) was 12%. Also, the IC50 at gelatinase A (MMP-2) turned out to be 35 nM; on metalloelastase (MMP-12) it was 6 nM.

Turning to `CCC(CC)C(CS(=O)(=O)N1CCc2cc(C(C)C)ccc2C1)N(O)C=O` (centres unmarked) [Example 35, N-(2-ethyl-1-{[(6-isopropyl-3,4-dihydroisoquinolin-2(1H)-yl)sulfonyl]methyl}butyl)-N-hydroxyformamide], the inhibition at 5 µM on collagenase (MMP-1) worked out at 6%. Also, the half-inhibitory concentration (IC50) amounted to 62 nM at gelatinase A (MMP-2) and 4.2 nM on metalloelastase (MMP-12).

On to `CCC(CC)C(CS(=O)(=O)N1CCc2ccc(Br)cc2C1)N(O)C=O` (centres unmarked) [Example 36, N-(1-{[(7-bromo-3,4-dihydroisoquinolin-2(1H)-yl)sulfonyl]-methyl}-2-ethylbutyl)-N-hydroxyformamide], for which the inhibition at 5 µM at collagenase (MMP-1) turned out to be 41%. Moreover, the half-maximal inhibitory concentration (IC50) at gelatinase A (MMP-2) stood at 41 nM; on metalloelastase (MMP-12), 5.7 nM.

In the case of `CCC(CC)C(CS(=O)(=O)N1CCc2cc(C(F)(F)F)ccc2C1)N(O)C=O` (centres unmarked) [Example 37, N-[2-ethyl-1-({[6-(trifluoromethyl)-3,4-dihydroisoquinolin-2(1H)-yl]sulfonyl}methyl)butyl]-N-hydroxyformamide], the inhibition at 5 µM at collagenase (MMP-1) came to 36%. For the same molecule, the half-inhibitory concentration (IC50) came to 35 nM on gelatinase A (MMP-2) and 4.2 nM at metalloelastase (MMP-12).

Take `CCC(CC)C(CS(=O)(=O)N1CCc2ccc(OC)cc2C1)N(O)C=O` (centres unmarked) [Example 38, N-(2-ethyl-1-{[(7-methoxy-3,4-dihydroisoquinolin-2(1H)-yl)sulfonyl]methyl}butyl)-N-hydroxyformamide]: the inhibition at 5 µM at collagenase (MMP-1) is 17%. Moreover, the half-maximal inhibitory concentration (IC50) on gelatinase A (MMP-2) was 71 nM; on metalloelastase (MMP-12) it was 7.2 nM.

Take `CC(C)C(CS(=O)(=O)N1CCc2cc(Cl)c(Cl)cc2C1)N(O)C=O` (centres unmarked) [Example 39, N-(1-{[(6,7-dichloro-3,4-dihydroisoquinolin-2(1H)-yl)-sulfonyl]methyl}-2-methylpropyl)-N-hydroxyformamide]: the inhibition at 5 µM at collagenase (MMP-1) was 25%. Also, the IC50 at gelatinase A (MMP-2) was 16 nM; at metalloelastase (MMP-12), 4.1 nM.

For the origin of these results see US7879876B2, “Sulfonamide derivatives and use thereof for the modulation of metalloproteinases” (Merck Serono SA, priority 2005, dated 2011).
